Test results published in patent publication US20070274947A1, “Antisense Oligonucleotides Directed to Ribonucleotide Reductase R1 and Uses Thereof in the Treatment of Cancer” (priority 2003, published 2007).
Entries after “also recorded” stand apart in the source; their conditions may differ.

Legend:
[1] = Acute intravenous toxicity study in the monkey (24-hour infusion, escalating doses); format: in vivo, Cynomolgus monkeys
Procedure: The objective of this single, dose escalating study was to establish a maximum tolerated dose (MTD) for SEQ ID NO:1 and to assess the effect of administered SEQ ID NO:1 on the cardiac function of conscious Cynomolgus monkeys. […] There was a 3-day washout between doses. One female animal, administered vehicle only (PBS) in the same manner, was used as a control. Electrocardiogram (ECG) measurements were conducted on each animal (including control) prior to, during and after the end of each infusion interval. Clinical signs, mortality, body weight and food consumption measurements, hematology, coagulation and clinical chemistry parameter evaluations, were recorded and evaluated. In addition, blood samples were removed prior to and at the end of each infusion interval to measure complement (CH50 and Bb). Blood samples were also drawn at the end of each infusion for analysis of parent, SEQ ID NO:1.

[2] = system: PC-3 human prostatic cancer cells; assay: PC-3 prostate tumor growth in SCID mice; format: in vivo; settings: 10 mg/kg i.v. every other day, 36 days, vs saline
Procedure: PC-3 human prostatic cancer cells (1×10^7 cells in 100 μl of PBS) were subcutaneously injected into the right flank of 6-7 week old male SCID mice. After the tumor size reached an approximate volume of 50 mm^3, 14 days post tumor cell injection, SEQ ID NO:1 was administered by bolus infusion into the tail vein every other day at 10 mg/kg. Control animals received saline alone for the same period. Treatments lasted for 36 days thereafter. Antitumor activities were estimated by the inhibition of tumor volume, which was measured with a caliper on six different occasions over 36-day period. Each point represents mean tumor volume calculated from 5 animals per experimental group.

[3] = system: R1 protein; assay: Immunoprecipitation of newly synthesized R1 protein in AsPC-1 cells; format: cell-based, human; settings: 0.2 μM, 4 hours
Procedure: Immunoprecipitation was performed using a saturating amount of AD203 anti-R1 monoclonal antibody as previously described (Choy et al., 1988). Human tumor cells, AsPC-1 (pancreatic adenocarcinoma), were exposed for 4 hours to SEQ ID NO:1, SEQ ID NO:1 M is (a SEQ ID NO:1 sequence containing four base mismatch) or SEQ ID NO:1 Scr (a sequence with the same ratio of ACTG as the SEQ ID NO:1 sequence but scrambled). Cells were then washed and labeled with ^35S-methionine for 4-7 hours. R1 protein was specifically immunoprecipitated with R1 antibody from cell lysate, resolved on sodium dodecyl sulfate-polyacrylamide gels and analyzed by autoradiography.

[4] = system: 28S rRNA, 18S rRNA, thioredoxin mRNA, β-actin mRNA, GAPDH mRNA, thioredoxin reductase mRNA, ribosomal protein S9 mRNA, RNase MRP RNA, RNase P RNA and R2 mRNA; assay: Northern blot of other cellular RNAs in A2058 human melanoma cells (specificity); format: cell-based; settings: 0.2 μM, 4 hr with Lipofectin
Procedure: A2058 human melanoma cells, grown to subconfluency (70-80%), were treated with 0.2 μM of phosphorothioate antisense ODNs for 4 hr in the presence of cationic lipid (Lipofectin reagent, final concentration, 5 μg/ml, GIBCO BRL) and Opti-MEM (GIBCO BRL). Cells were washed once with PBS and incubated for 16 hr in α-MEM medium (GIBCO BRL) containing 10% FBS. Total RNA was prepared in TRIzol reagent (GIBCO BRL) and northern blot analysis was performed as previously described (Hurta and Wright, J. Cell. Biochem. 57: 543-56, 1995) with some modifications. RNA prepared from cells treated with lipofectin alone (Control), SEQ ID NO:1 and scrambled control analogue (SEQ ID NO:1 Scr) were subjected to electrophoresis through 1% formaldehyde agarose gels followed by transfer to nylon membrane. The blots were hybridized with ^32P-labeled probes that detect R1 mRNA, 28S rRNA, 18S rRNA, thioredoxin mRNA, […], GAPDH mRNA, thioredoxin reductase mRNA, ribosomal protein S9 mRNA, RNase MRP RNA, RNase P RNA and R2 mRNA.

[5] = system: MDA-MB435-To.1 human Taxol-resistant breast adenocarcinoma cells; assay: Taxol-resistant breast adenocarcinoma MDA-MB435-To.1 growth in SCID mice; format: in vivo
Procedure: MDA-MB435-To.1 human Taxol-resistant breast adenocarcinoma cells (4×10^6 cells in 100 μl of PBS) were injected into the fat pad (inside of right leg) of 6-7 weeks old female SCD mice. After the size of tumor reached an approximate volume of 100 mm^3, 20 days post tumor cell injection, SEQ ID NO:1 was administered by bolus infusion into the tail vein every other day at 10 mg/kg 15 times. Control animals received saline alone for the same period. Antitumor effect of SEQ ID NO:1 was further compared to that of Cisplatin or Taxol alone (FIG. 15A). Cisplatin was administered intravenously once a week for four weeks at a dose of 4 mg/kg. Taxol was administered intravenously once a week for four weeks at a dose of 20 mg/kg. Antitumor activities were estimated by the inhibition of tumor volume, which was measured with caliper (FIG. 15B). Each point represents mean tumor volume calculated from 9-10 animals per experimental group. […] As expected, treatment with Taxol during the same period was ineffective against Taxol-resistant tumor.
MDA-MB435-To.1 human Taxol-resistant breast adenocarcinoma cells (4×10^6 cells in 100 μl of PBS) were injected into the fat pad (inside of right leg) of 6-7 weeks old female CB-17 SCID mice. After the size of tumor reached an approximate volume of 100 mm^3, 17 days post tumor cell injection, SEQ ID NO:1 was administered by bolus infusion into the tail vein every other day at 10 mg/kg. Control animals received saline alone for the same period. Antitumor effect of SEQ ID NO:1 was compared to that of Cisplatin alone and in combination. Cisplatin was administered intravenously once a week for four weeks at a dose of 4 mg/kg. Antitumor activities were estimated by the inhibition of tumor volume, which was measured with caliper (FIG. 15B). Each point represents mean tumor volume calculated from 10 animals per experimental group. At the end of the study the animals were sacrificed and tumors weighed (FIG. 15C).

5′-CTCTAGCGTCTTAAAGCCGA-3′ (CTCTAGCGTCTTAAAGCCGA; chemistry not given here) [SEQ ID NO:1]
complement values ([1]; 80 mg/kg, one animal (female)): outside the normal range (higher Bb and lower CH50)
ECG recordings and blood pressure ([1]; 10-80 mg/kg): no treatment-related effects
deaths, clinical signs, body weight, food consumption ([1]; 24-hour infusions of 10, 20, 40 and 80 mg/kg): no deaths, clinical signs, body weight changes, or effects on food consumption
plasma concentrations at the end of infusion ([1]; escalating doses 10-80 mg/kg): increased with escalating dose levels
activated partial thromboplastin times ([1]; following the last dose (Day 14), all values within normal ranges): apparent increasing trend
complement Bb and CH50 values ([1]; up to 40 mg/kg): within the reference range
inhibition of tumor volume [2]: strong inhibitory effects
R1 protein expression (synthesis) [3]: specifically decreases R1 protein expression; also recorded: dramatically decreased; also recorded: specifically inhibit the expression of R1 protein
expression of other cellular RNAs [4]: significant decrease in R1 mRNA but not other RNAs; also recorded: No effects were observed
delay in tumor growth compared with Cisplatin ([5]; first experiment, Cisplatin 4 mg/kg weekly as positive control): superior to the inhibitory effects observed with Cisplatin
tumor weight / tumor growth ([5]; first experiment, start 20 days post injection, SEQ ID NO:1 10 mg/kg 15 times, Cisplatin 4 mg/kg, Taxol 20 mg/kg weekly for four weeks): significant reduction of tumor weight
delay in tumor growth compared with Cisplatin ([5]; second experiment, CB-17 SCID mice): superior to the inhibitory effects observed with Cisplatin
tumor weight / tumor growth ([5]; second experiment, CB-17 SCID mice, start 17 days post injection, SEQ ID NO:1 10 mg/kg every other day, Cisplatin 4 mg/kg weekly): significant reduction of tumor weight
